A word on the EC50: it is the concentration that produces a half-maximal response. Read a high EC50 as lower potency in that assay.

This is an account of results in patent US8445491B2, “Wnt protein signalling inhibitors” (The Board of Regents of the University of Texas System, priority 2008, dated 2013).

Where only a bound is given, the exact number is not on record here.

The first assay deals with Wnt/β-catenin pathway. The experiment in a line: luciferase-based reporter assay (SuperTopFlash) measuring Wnt/β-catenin-dependent transcriptional response, L-Wnt-STF cells. The class given is cell-based. The settings on record: Mus musculus; Table 1; luciferase reporter of Wnt/β-catenin-dependent transcriptional response. Here is the method:
Tables 1 and 2 provides further examples of such compounds, as well as their activities as determined by a luciferase-based reporter assay that measures Wnt/β-catenin-dependent transcriptional response.
For the “primary screen” and “dose-dependent test,” ˜5,000 L-Wnt-STF cells were seeded into each well of a white opaque 384 well plate and individual compounds from the UTSW chemical library added 24 hrs later to each well at a final concentration of 2.5 μM (primary screen) or otherwise indicated concentrations. Luciferase activities were measured 24 hrs later. To identify FL inhibitors and compounds that blocked protein secretion, L-cells were transiently transfected with CMV-FL and CMV-GL constructs and immediately incubated with compounds. Culture medium and cell lysates were analyzed for GL and FL activities, respectively, after 24 hrs. For the “exogenous Wnt test,” Wnt3A-containing conditioned medium, prepared following the protocol provided ATCC, was applied to HEK293 cells transiently transfected with STF and control reporters. For Hedgehog and Notch tests, NIH-3T3 cells or L-cells, respectively, were transiently transfected with indicated reporter constructs and immediately incubated with compounds. Luciferase activities were measured 24 hrs later. The “Wnt secretion test” was performed in L-cells transiently transfected with the Wnt-GL expression construct and immediately incubated with compounds. Culture medium and cellular lysate were analyzed 48 hrs later for GL activity. Assays used to calculate IC50's for compounds were performed as before in L-Wnt-STF cells.
A brief overview of the screen is as follows: mouse L-cells that stably harbor a well-characterized Wnt/β-catenin pathway-responsive firefly luciferase (FL) reporter plasmid (SuperTopFlash or STF), a control reporter, and an expression construct encoding the Wnt protein, Wnt3A, were exposed to individual compounds for two days prior to measurement of reporter activities. Chemicals that altered FL but not control reporter activity were selected for further testing (FIG. 1; FIG. 8). The screening strategy allows for identification of compounds that either potentially increase or decrease Wnt/β-catenin pathway activity.
In general terms: A reporter such as luciferase makes a cellular process visible.
Molecule `O=C(NCc1ccccc1)c1ccc(N2C(=O)[C@@H]3[C@@H]4C=CC(C4)[C@@H]3C2=O)cc1` [Compound 29] returned an EC50 of 20 µM.
On the same count and under the same terms, the figure for `O=C(Nc1ccc(Br)c(Br)c1)c1ccc(N2C(=O)[C@@H]3[C@@H]4C=CC(C4)[C@@H]3C2=O)cc1` [Compound 24] is 10 µM.
In the case of `COc1ccccc1NC(=O)c1ccc(N2C(=O)[C@@H]3[C@@H]4C=CC(C4)[C@@H]3C2=O)cc1` [Compound 5], the 50% effective concentration (EC50) came to 1 µM.
Same read-out and setting: the value for `O=C(Nc1ccc(C(F)(F)F)cc1)c1ccc(N2C(=O)[C@@H]3[C@@H]4C=CC(C4)[C@@H]3C2=O)cc1` [Compound 28] was over 25 µM.
`O=C(Nc1ccc(Cl)c(Cl)c1)c1ccc(N2C(=O)[C@@H]3[C@@H]4C=CC(C4)[C@@H]3C2=O)cc1` [Compound 23] displayed a half-maximal effective concentration (EC50) of 5 µM.
Molecule `O=C(Nc1cccc(C(F)(F)F)c1)c1ccc(N2C(=O)[C@@H]3[C@@H]4C=CC(C4)[C@@H]3C2=O)cc1` [Compound 27] gave an EC50 of 20 µM.
As for `O=C(Nc1ccc(Cl)cc1Cl)c1ccc(N2C(=O)[C@@H]3[C@@H]4C=CC(C4)[C@@H]3C2=O)cc1` [Compound 18], it took 10 µM to reach a half-maximal effect (EC50).
On the same count and under the same terms, the value for `O=C(Nc1ccc(F)cc1F)c1ccc(N2C(=O)[C@@H]3[C@@H]4C=CC(C4)[C@@H]3C2=O)cc1` [Compound 17] was 9 µM.
For `O=C(Nc1ccccc1F)c1ccc(N2C(=O)[C@@H]3[C@@H]4C=CC(C4)[C@@H]3C2=O)cc1` [Compound 7], the EC50 is over 25 µM.
Still for that read-out and setting: the figure for `O=C(Nc1ccc(F)c(F)c1)c1ccc(N2C(=O)[C@@H]3[C@@H]4C=CC(C4)[C@@H]3C2=O)cc1` [Compound 22] is 3 µM; for `O=C(NC1CCCc2cccnc21)c1ccc(N2C(=O)[C@@H]3[C@@H]4C=CC(C4)[C@@H]3C2=O)cc1` (stereo partly shown) [Compound 4] it is 10 µM; for `O=C(Nc1cc(F)ccc1F)c1ccc(N2C(=O)[C@@H]3[C@@H]4C=CC(C4)[C@@H]3C2=O)cc1` [Compound 20] it is over 25 µM.
Still for that read-out and setting: the figure for `O=C(Nc1ccc(Cl)cc1)c1ccc(N2C(=O)[C@@H]3[C@@H]4C=CC(C4)[C@@H]3C2=O)cc1` [Compound 14] is 3 µM.
On the same count and under the same terms, the figure for `O=C(Nc1ccc(Br)cc1Br)c1ccc(N2C(=O)[C@@H]3[C@@H]4C=CC(C4)[C@@H]3C2=O)cc1` [Compound 19] is over 25 µM; for `O=C(Nc1cccc(Br)c1)c1ccc(N2C(=O)[C@@H]3[C@@H]4C=CC(C4)[C@@H]3C2=O)cc1` [Compound 12] it is 9 µM; for `O=C(NCc1ccccn1)c1ccc(N2C(=O)[C@@H]3[C@@H]4C=CC(C4)[C@@H]3C2=O)cc1` [Compound 30] it is over 25 µM.
In turn, `O=C(Nc1cccc(F)c1F)c1ccc(N2C(=O)[C@@H]3[C@@H]4C=CC(C4)[C@@H]3C2=O)cc1` [Compound 16] displayed an EC50 of over 25 µM.
For `O=C(Nc1cc(F)cc(F)c1)c1ccc(N2C(=O)[C@@H]3[C@@H]4C=CC(C4)[C@@H]3C2=O)cc1` [Compound 25], the concentration giving a half-maximal response (EC50) is over 25 µM.
Same read-out and setting: the figure for `O=C(Nc1ccc(Br)cc1)c1ccc(N2C(=O)[C@@H]3[C@@H]4C=CC(C4)[C@@H]3C2=O)cc1` [Compound 15] is 1 µM; for `O=C(NCc1cccnc1)c1ccc(N2C(=O)[C@@H]3[C@@H]4C=CC(C4)[C@@H]3C2=O)cc1` [Compound 31] it is over 25 µM.
`O=C(NCc1ccncc1)c1ccc(N2C(=O)[C@@H]3[C@@H]4C=CC(C4)[C@@H]3C2=O)cc1` [Compound 32] gave an EC50 of 10 µM.
As for `O=C(Nc1ccccc1)c1ccc(N2C(=O)[C@@H]3[C@@H]4C=CC(C4)[C@@H]3C2=O)cc1` [Compound 6], the EC50 was over 25 µM.
Regarding `O=C(Nc1c(F)cccc1F)c1ccc(N2C(=O)[C@@H]3[C@@H]4C=CC(C4)[C@@H]3C2=O)cc1` [Compound 21], the 50% effective concentration (EC50) was over 25 µM.
The molecule `O=C(NC1CCCCC1)c1ccc(N2C(=O)[C@@H]3[C@@H]4C=CC(C4)[C@@H]3C2=O)cc1` [Compound 35] returned an EC50 of over 25 µM.
Same read-out and setting: the figure for `O=C(Nc1cccc(F)c1)c1ccc(N2C(=O)[C@@H]3[C@@H]4C=CC(C4)[C@@H]3C2=O)cc1` [Compound 10] is over 25 µM.
The same measure, in the same setting: the figure for `O=C(Nc1ccccc1Br)c1ccc(N2C(=O)[C@@H]3[C@@H]4C=CC(C4)[C@@H]3C2=O)cc1` [Compound 9] is over 25 µM; for `O=C(Nc1cccc(Cl)c1)c1ccc(N2C(=O)[C@@H]3[C@@H]4C=CC(C4)[C@@H]3C2=O)cc1` [Compound 11] it is over 25 µM.
In the case of `O=C(Nc1ccccc1Cl)c1ccc(N2C(=O)[C@@H]3[C@@H]4C=CC(C4)[C@@H]3C2=O)cc1` [Compound 8], the concentration for a half-maximal effect (EC50) was over 25 µM.
The molecule `O=C(Nc1ccc(F)cc1)c1ccc(N2C(=O)[C@@H]3[C@@H]4C=CC(C4)[C@@H]3C2=O)cc1` [Compound 13] had an EC50 of 4 µM.
`O=C(Nc1ccccc1C(F)(F)F)c1ccc(N2C(=O)[C@@H]3[C@@H]4C=CC(C4)[C@@H]3C2=O)cc1` [Compound 26] came in with an EC50 of over 25 µM.
On the same count and under the same terms, the figure for `Cc1ccc2cccnc2c1NC(=O)c1ccc(N2C(=O)[C@@H]3[C@@H]4C=CC(C4)[C@@H]3C2=O)cc1` [Compound 3] is 0.8 µM.

The assay is the same for the next values; noted with them: Mus musculus; Table 2 (50-52, IWR-8 to IWR-14).
`O=C1[C@@H]2[C@@H]3C=CC(C3)[C@@H]2C(=O)N1c1ccc(S(=O)(=O)Nc2ccccc2Br)cc1` [IWR-9] showed an EC50 of over 25 µM.
Molecule `COc1ccccc1NS(=O)(=O)c1ccc(N2C(=O)[C@@H]3[C@@H]4C=CC(C4)[C@@H]3C2=O)cc1` [IWR-12] returned an EC50 of 10 µM.
The same measure, in the same setting: the value for `COc1cccc(NS(=O)(=O)c2ccc(N3C(=O)[C@@H]4[C@@H]5C=CC(C5)[C@@H]4C3=O)cc2)c1` [IWR-13] was 6 µM.
Turning to `O=C(Nc1cccc2cccnc12)c1ccc(N2C(=O)[C@@H]3[C@@H]4CCC(C4)[C@@H]3C2=O)cc1` [Compound 52], the 50% effective concentration (EC50) was determined as 0.2 µM.
On the same count and under the same terms, the figure for `O=C1[C@@H]2[C@@H]3C=CC(C3)[C@@H]2C(=O)N1c1ccc(S(=O)(=O)Nc2cccc3cccnc23)cc1` [IWR-8] is over 25 µM.
The same measure, in the same setting: the figure for `O=C(Nc1cccc2cccnc12)c1ccc(N2C(=O)[C@@H]3[C@H]4C=CC(C4)[C@@H]3C2=O)cc1` [Compound 51] is 5 µM.
`COc1ccc(NS(=O)(=O)c2ccc(N3C(=O)[C@@H]4[C@@H]5C=CC(C5)[C@@H]4C3=O)cc2)cc1` [IWR-14] displayed an EC50 of 10 µM.
Still for that read-out and setting: the figure for `O=C1[C@@H]2[C@@H]3C=CC(C3)[C@@H]2C(=O)N1c1ccc(S(=O)(=O)Nc2cccc(Br)c2)cc1` [IWR-10] is 2 µM; for `CN(C(=O)c1ccc(N2C(=O)[C@@H]3[C@@H]4C=CC(C4)[C@@H]3C2=O)cc1)c1cccc2cccnc12` [Compound 50] it is over 25 µM; for `O=C1[C@@H]2[C@@H]3C=CC(C3)[C@@H]2C(=O)N1c1ccc(S(=O)(=O)Nc2ccc(Br)cc2)cc1` [IWR-11] it is 3 µM.

Another assay has as its system caudal fin regeneration in zebrafish. The experiment in a line: caudal fin regeneration assay in zebrafish. The class given is in vivo. The settings on record: zebrafish, FIG. 25, concentration not given. How it is done: FIG. 25. […] Arrows indicate the points of resection.
6 month-old zebrafish were incubated 8 or 14 days at 28.5° C. in aquarium water supplemented with 10 μM IWR or in 0.1% DMSO as a control. Fish were fed standard diet, and solutions were changed daily. At the end of the exposure, zebrafish were incubated in 1 mM BrdU in aquarium water for 2 hrs at room temperature, then washed several times in aquarium water, anesthetized with 0.1% Tricaine, and fixed in 4% paraformaldehyde for 48 hrs at 4° C. The intestine was dissected out, dehydrated, paraffin embedded and sectioned at […] intervals. Sections were stained with Hematoxylin and Eosin or processed for BrdU immunohistochemistry as described (Shepard et al., 2005). Sections from 8 animals each from IWR and DMSO groups were independently scored by four blinded observers. The total number of intestinal folds and total number of BrdU-positive nuclei in the mid and distal sections of the intestine were counted from each section. For caudal fin regeneration assays, zebrafish, 3-6 months of age, were anaesthetized in 0.2% Tricaine and half of the fin was resected using a razor blade to remove Amputees were reared at 31° C. in tanks containing either 300 ml of water with DMSO or IWR (10 μM). Water and compounds were replenished daily for a total assay period of 4 days.
Take `O=C(Nc1ccc(F)cc1F)c1ccc(N2C(=O)[C@@H]3[C@@H]4C=CC(C4)[C@@H]3C2=O)cc1` [Compound 17]: the “inhibition of fin regeneration” value was “only retarded the growth of the tail fin”.
Take `O=C(Nc1ccc(F)cc1)c1ccc(N2C(=O)[C@@H]3[C@@H]4C=CC(C4)[C@@H]3C2=O)cc1` [Compound 13]: the “inhibition of fin regeneration” value was “partial inhibition”.
